For one data set, the target named is T1, α4β1 integrin (Homo sapiens, UniProt P05556+P13612).
T1 construct: Jurkat cells endogenously express α4β1 integrin; host or cells: Jurkat E6.1 cells
The data set is described as follows: Jurkat cell adhesion assay on VCAM-1-coated wells. To be noted: Jurkat cell adhesion to VCAM-1 (2 μg/mL); means ± SD, n = 3; tested 0.1 nM to 100 μM; read-out: EC50/IC50 (IC50 for compounds reducing cell adhesion). It is filed as cell-based. Here is the method: To investigate the ability of the newly synthesized cyclopeptidomimetics 12–18 to recognize and bind α4β1 integrin, cell adhesion assays were performed on VCAM-1. The compounds were evaluated for their ability to interfere with α4β1 integrin-mediated cell adhesion by using Jurkat cells, which are known to constitutively express this integrin [46, 48, 49, 50, 51].
Jurkat E6.1 cells were purchased from American Type Culture Collection (ATCC, Rockville, MD, USA) and were routinely cultured in RPMI-1640 (LifeTechnologies, Milan, Italy) supplemented with 10% FBS (fetal bovine serum, Life Technologies) and 2 mM glutamine. Cells were kept at 37 °C under 5% CO2 humidified atmosphere. Jurkat cells are a widely used cell model to study potential agonist or antagonist ligands able to modulate integrin-mediated cell adhesion. Jurkat cells endogenously express α4β1 integrin [13].
The assays were performed as previously described. In brief, black 96 well plates were coated with VCAM-1 (2 μg/mL) overnight at 4 °C; then, non-specific hydrophobic binding sites were blocked with 1% BSA (bovine serum albumin, Sigma-Aldrich) in HBSS (Life Technologies) for 30 min at 37 °C. Jurkat cells were labelled with CellTracker green CMFDA (12.5 μM, Life Technolgies) and pre-incubated with various concentration (10^−4–10^−10 M) of each new cyclopeptidomimetic or with the vehicle (DMSO) for 30 min at 37 °C. Afterwards, Jurkat cells were plated on VCAM-1-coated wells and incubated for 30 min at 37 °C. Then, wells were washed three times with 1% BSA in HBSS and Jurkat cells were lysed with 0.5% Triton X-100 in PBS for 30 min at 4 °C. Green fluorescence (Ex485 nm/Em 535 nm) was measured in an EnSpire Multimode Plate Reader (PerkinElmer, Waltham, MA, USA). Experiments were performed in quadruplicate and repeated at least three times. The number of adherent cells was determined by comparison with a standard curve made with a known concentration of labelled Jurkat cells. Data analysis and IC50/EC50 values were calculated using GraphPad Prism 6.0 (GraphPad Software, San Diego, CA, USA).
The number of adherent cells was determined as described above.

Data set [1] in a line: head-to-tail lactamisation (amide bond) of side-chain-protected linear peptides; HATU (3 equiv)/HOAt (3 equiv)/2,4,6-collidine (3 equiv); linear peptide + collidine added dropwise to HATU/HOAt, 5 h, argon. The note with it: the molecule shown is the open-chain precursor, DCM/DMF 15:1, 25.0 °C.
The conditions of data set [2]: amide bond, HATU/HOAt/collidine, DCM/DMF 15:1, 25.0 °C.

The structures appear in SMILES notation. Read-outs that look alike come from different tables or passages of the source. *1 amine or outer side, *2 acyl side, *3 side chain or, on linkers, in order; H or OH if unused. Where a SMILES comes first, the peptide text is derived from it. Bridges are numbered along the chain shown (N, C = ends). [ ]: non-standard residue; d: D form. The star is where a group is joined. ξ: configuration not given here. ξPro(4ξ-NH2) = O=C(C1CC(N[*:3])CN1[*:1])[*:2]; X1 = O=C(Cc1ccc(N[*:1])cc1)[*:2]; NH(2-Me-phenyl) = Cc1ccccc1N*; CO = O=C([*:1])[*:2]

T1 sequence (P13612 34-1032): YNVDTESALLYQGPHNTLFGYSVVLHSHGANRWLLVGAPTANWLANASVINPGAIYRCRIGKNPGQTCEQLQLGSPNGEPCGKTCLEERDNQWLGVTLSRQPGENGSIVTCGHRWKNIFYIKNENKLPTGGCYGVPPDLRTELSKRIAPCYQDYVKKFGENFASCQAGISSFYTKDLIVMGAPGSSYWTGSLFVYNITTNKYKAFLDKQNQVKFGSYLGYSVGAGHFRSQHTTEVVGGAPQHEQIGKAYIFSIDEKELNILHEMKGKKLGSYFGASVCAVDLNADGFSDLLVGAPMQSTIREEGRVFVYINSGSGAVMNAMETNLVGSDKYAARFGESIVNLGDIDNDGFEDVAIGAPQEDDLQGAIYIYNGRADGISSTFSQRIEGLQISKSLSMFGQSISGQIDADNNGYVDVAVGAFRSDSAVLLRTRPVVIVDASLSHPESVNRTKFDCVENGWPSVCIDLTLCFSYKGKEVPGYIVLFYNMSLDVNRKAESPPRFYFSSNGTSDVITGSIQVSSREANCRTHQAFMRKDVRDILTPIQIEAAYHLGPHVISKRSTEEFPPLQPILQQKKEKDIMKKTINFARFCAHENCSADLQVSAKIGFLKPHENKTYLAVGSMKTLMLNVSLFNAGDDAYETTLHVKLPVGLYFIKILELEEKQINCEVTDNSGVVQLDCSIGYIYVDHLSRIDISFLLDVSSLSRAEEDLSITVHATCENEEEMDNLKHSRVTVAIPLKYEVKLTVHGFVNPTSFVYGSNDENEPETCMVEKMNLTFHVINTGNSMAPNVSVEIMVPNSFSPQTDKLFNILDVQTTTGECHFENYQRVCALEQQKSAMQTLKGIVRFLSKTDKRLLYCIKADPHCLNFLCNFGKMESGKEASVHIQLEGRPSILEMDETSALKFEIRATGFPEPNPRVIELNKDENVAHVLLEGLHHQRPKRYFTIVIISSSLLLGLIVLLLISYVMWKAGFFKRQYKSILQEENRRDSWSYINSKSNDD
T1 sequence (P05556 21-798): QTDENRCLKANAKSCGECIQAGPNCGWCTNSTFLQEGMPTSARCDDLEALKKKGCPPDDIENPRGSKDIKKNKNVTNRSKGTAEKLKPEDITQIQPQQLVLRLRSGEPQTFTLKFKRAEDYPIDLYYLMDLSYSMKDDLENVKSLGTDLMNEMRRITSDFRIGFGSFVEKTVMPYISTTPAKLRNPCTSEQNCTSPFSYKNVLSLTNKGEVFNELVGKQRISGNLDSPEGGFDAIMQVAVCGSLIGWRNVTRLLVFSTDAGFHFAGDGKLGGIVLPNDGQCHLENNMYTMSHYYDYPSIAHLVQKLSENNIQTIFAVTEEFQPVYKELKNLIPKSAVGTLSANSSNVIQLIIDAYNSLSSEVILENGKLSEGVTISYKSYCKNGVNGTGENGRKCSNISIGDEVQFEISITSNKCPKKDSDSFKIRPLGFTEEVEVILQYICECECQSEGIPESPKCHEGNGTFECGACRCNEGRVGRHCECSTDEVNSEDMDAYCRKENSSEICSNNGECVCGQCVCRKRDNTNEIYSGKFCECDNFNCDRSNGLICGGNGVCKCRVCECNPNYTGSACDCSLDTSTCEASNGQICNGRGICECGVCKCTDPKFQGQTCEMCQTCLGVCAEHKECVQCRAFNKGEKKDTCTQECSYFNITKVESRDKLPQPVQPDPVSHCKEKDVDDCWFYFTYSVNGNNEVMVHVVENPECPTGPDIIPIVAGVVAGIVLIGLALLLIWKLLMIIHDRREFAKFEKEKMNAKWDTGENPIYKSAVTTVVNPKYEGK

On to `Cc1ccccc1NC(=O)Nc1ccc(CC(=O)N2CC3CC2C(=O)NC(CC(C)C)C(=O)NC(CC(=O)O)C(=O)NC(C(C)C)C(=O)NCC(=O)N3)cc1` (stereo not drawn) [Compound 12, c[(MPUPA)Amp-Leu-Asp-Val-Gly]] ({NH(2-Me-phenyl)-CO}-[X1][ξPro(4ξ-NH2)]LDVG; lactam 2-C; configuration not given here), for which the IC50 on α4β1 integrin is above 100 µM.
On the same count and under the same terms, for `Cc1ccccc1NC(=O)Nc1ccc(CC(=O)N2CC3CC2C(=O)NC(CC(C)C)C(=O)NC(CCC(=O)O)C(=O)NC(C(C)C)C(=O)NCC(=O)N3)cc1` (stereo not drawn) [Compound 13, c[(MPUPA)Amp-Leu-Glu-Val-Gly]] ({NH(2-Me-phenyl)-CO}-[X1][ξPro(4ξ-NH2)]LEVG; lactam 2-C; configuration not given here) the value was above 100 µM; for `Cc1ccccc1NC(=O)Nc1ccc(CC(=O)N2CC3CC2C(=O)NC(CC(C)C)C(=O)NC(CC(=O)O)C(=O)NC(C(C)C)C(=O)N3)cc1` (stereo not drawn) [Compound 14, c[(MPUPA)Amp-Leu-Asp-Val]] ({NH(2-Me-phenyl)-CO}-[X1][ξPro(4ξ-NH2)]LDV; lactam 2-C; configuration not given here), above 100 µM.
Same read-out and setting: with `Cc1ccccc1NC(=O)Nc1ccc(CC(=O)N2CC3CC2C(=O)NC(CC(C)C)C(=O)NC(CCC(=O)O)C(=O)NC(C(C)C)C(=O)N3)cc1` (stereo not drawn) [Compound 15, c[(MPUPA)Amp-Leu-Glu-Val]] ({NH(2-Me-phenyl)-CO}-[X1][ξPro(4ξ-NH2)]LEV; lactam 2-C; configuration not given here) the figure was above 100 µM; with `Cc1ccccc1NC(=O)Nc1ccc(CC(=O)N2CC3CC2C(=O)NC(C(C)C)C(=O)NC(CCC(=O)O)C(=O)NC(CC(C)C)C(=O)N3)cc1` (stereo not drawn) [Compound 17, c[(MPUPA)Amp-Val-Glu-Leu]] ({NH(2-Me-phenyl)-CO}-[X1][ξPro(4ξ-NH2)]VEL; lactam 2-C; configuration not given here), above 100 µM; with `Cc1ccccc1NC(=O)Nc1ccc(CC(=O)N2CC3CC2C(=O)NC(CCCNC(=N)N)C(=O)NCC(=O)NC(CC(=O)O)C(=O)N3)cc1` (stereo not drawn) [Compound 18, c[(MPUPA)Amp-Arg-Gly-Asp]] ({NH(2-Me-phenyl)-CO}-[X1][ξPro(4ξ-NH2)]RGD; lactam 2-C; configuration not given here), above 100 µM.
With `Cc1ccccc1NC(=O)Nc1ccc(CC(=O)N2C[C@@H](NC(=O)[C@@H](N)CC(=O)OC(C)(C)C)C[C@H]2C(=O)N[C@@H](CCCNC(=N)NS(=O)(=O)c2c(C)c(C)c3c(c2C)CCC(C)(C)O3)C(=O)NCC(=O)O)cc1` [H-Asp(tBu)-Amp(MPUPA)-Arg(Pmc)-Gly-OH], in data set [1] (14-membered ring), the ring closure, isolated yield is 43%.
Turning to `Cc1ccccc1NC(=O)Nc1ccc(CC(=O)N2C[C@@H]3C[C@H]2C(=O)N[C@@H](CCCNC(=N)NS(=O)(=O)c2c(C)c(C)c4c(c2C)CCC(C)(C)O4)C(=O)NCC(=O)N[C@@H](CC(=O)OC(C)(C)C)C(=O)N3)cc1` [H-Asp(tBu)-Amp(MPUPA)-Arg(Pmc)-Gly-OH], in data set [2] (from H-Asp(tBu)-Amp(MPUPA)-Arg(Pmc)-Gly-OH, 14-membered ring, 0.52 mM), the ring closure, isolated yield worked out at 43%.
For the compound `Cc1ccccc1NC(=O)Nc1ccc(CC(=O)N2C[C@@H](NC(=O)[C@@H](N)CC(C)C)C[C@H]2C(=O)N[C@H](C(=O)N[C@@H](CC(=O)OC(C)(C)C)C(=O)O)C(C)C)cc1` [H-Leu-Amp(MPUPA)-Val-Asp(tBu)-OH], in data set [1] (14-membered ring), the ring closure, isolated yield amounted to 73%.
As for `Cc1ccccc1NC(=O)Nc1ccc(CC(=O)N2C[C@@H]3C[C@H]2C(=O)N[C@@H](C(C)C)C(=O)N[C@@H](CC(=O)OC(C)(C)C)C(=O)N[C@@H](CC(C)C)C(=O)N3)cc1` [H-Leu-Amp(MPUPA)-Val-Asp(tBu)-OH], the ring closure, isolated yield in data set [2] (from H-Leu-Amp(MPUPA)-Val-Asp(tBu)-OH, 14-membered ring, 0.78 mM) amounted to 73%.
In the case of `Cc1ccccc1NC(=O)Nc1ccc(CC(=O)N2C[C@@H](NC(=O)[C@@H](N)CC(C)C)C[C@H]2C(=O)N[C@H](C(=O)N[C@@H](CCC(=O)OC(C)(C)C)C(=O)O)C(C)C)cc1` [H-Leu-Amp(MPUPA)-Val-Glu(tBu)-OH], the ring closure, isolated yield in data set [1] (14-membered ring) amounted to 73%.
`Cc1ccccc1NC(=O)Nc1ccc(CC(=O)N2C[C@@H]3C[C@H]2C(=O)N[C@@H](C(C)C)C(=O)N[C@@H](CCC(=O)OC(C)(C)C)C(=O)N[C@@H](CC(C)C)C(=O)N3)cc1` [H-Leu-Amp(MPUPA)-Val-Glu(tBu)-OH]: in data set [2] (from H-Leu-Amp(MPUPA)-Val-Glu(tBu)-OH, 14-membered ring, 0.74 mM), the ring closure, isolated yield is 73%.
As to `Cc1ccccc1NC(=O)Nc1ccc(CC(=O)N2C[C@@H](NC(=O)[C@@H](N)C(C)C)C[C@H]2C(=O)N[C@@H](CC(C)C)C(=O)N[C@@H](CC(=O)OC(C)(C)C)C(=O)O)cc1` [H-Val-Amp(MPUPA)-Leu-Asp(tBu)-OH], in data set [1] (14-membered ring), the ring closure, isolated yield stood at 69%.
With `Cc1ccccc1NC(=O)Nc1ccc(CC(=O)N2C[C@@H]3C[C@H]2C(=O)N[C@@H](CC(C)C)C(=O)N[C@@H](CC(=O)OC(C)(C)C)C(=O)N[C@@H](C(C)C)C(=O)N3)cc1` [H-Val-Amp(MPUPA)-Leu-Asp(tBu)-OH], the ring closure, isolated yield in data set [2] (from H-Val-Amp(MPUPA)-Leu-Asp(tBu)-OH, 14-membered ring, 0.53 mM) is 69%.
As to `Cc1ccccc1NC(=O)Nc1ccc(CC(=O)N2C[C@@H](NC(=O)[C@@H](N)C(C)C)C[C@H]2C(=O)N[C@@H](CC(C)C)C(=O)N[C@@H](CCC(=O)OC(C)(C)C)C(=O)O)cc1` [H-Val-Amp(MPUPA)-Leu-Glu(tBu)-OH], the ring closure, isolated yield in data set [1] (14-membered ring) is 65%.
For `Cc1ccccc1NC(=O)Nc1ccc(CC(=O)N2C[C@@H]3C[C@H]2C(=O)N[C@@H](CC(C)C)C(=O)N[C@@H](CCC(=O)OC(C)(C)C)C(=O)N[C@@H](C(C)C)C(=O)N3)cc1` [H-Val-Amp(MPUPA)-Leu-Glu(tBu)-OH], the ring closure, isolated yield in data set [2] (from H-Val-Amp(MPUPA)-Leu-Glu(tBu)-OH, 14-membered ring, 0.76 mM) came out at 65%.
Regarding `Cc1ccccc1NC(=O)Nc1ccc(CC(=O)N2C[C@@H](NC(=O)CNC(=O)[C@@H](N)C(C)C)C[C@H]2C(=O)N[C@@H](CC(C)C)C(=O)N[C@@H](CC(=O)OC(C)(C)C)C(=O)O)cc1` [H-Val-Gly-Amp(MPUPA)-Leu-Asp(tBu)-OH], the ring closure, isolated yield in data set [1] (17-membered ring) was found to be 88%.
`Cc1ccccc1NC(=O)Nc1ccc(CC(=O)N2C[C@@H]3C[C@H]2C(=O)N[C@@H](CC(C)C)C(=O)N[C@@H](CC(=O)OC(C)(C)C)C(=O)N[C@@H](C(C)C)C(=O)NCC(=O)N3)cc1` [H-Val-Gly-Amp(MPUPA)-Leu-Asp(tBu)-OH] registered a ring closure, isolated yield in data set [2] (from H-Val-Gly-Amp(MPUPA)-Leu-Asp(tBu)-OH, 17-membered ring, 0.47 mM) of 88%.
As to `Cc1ccccc1NC(=O)Nc1ccc(CC(=O)N2C[C@@H](NC(=O)CNC(=O)[C@@H](N)C(C)C)C[C@H]2C(=O)N[C@@H](CC(C)C)C(=O)N[C@@H](CCC(=O)OC(C)(C)C)C(=O)O)cc1` [H-Val-Gly-Amp(MPUPA)-Leu-Glu(tBu)-OH], the ring closure, isolated yield in data set [1] (17-membered ring) turned out to be 78%.
In turn, `Cc1ccccc1NC(=O)Nc1ccc(CC(=O)N2C[C@@H]3C[C@H]2C(=O)N[C@@H](CC(C)C)C(=O)N[C@@H](CCC(=O)OC(C)(C)C)C(=O)N[C@@H](C(C)C)C(=O)NCC(=O)N3)cc1` [H-Val-Gly-Amp(MPUPA)-Leu-Glu(tBu)-OH] had a ring closure, isolated yield in data set [2] (from H-Val-Gly-Amp(MPUPA)-Leu-Glu(tBu)-OH, 17-membered ring, 0.48 mM) of 78%.

Source of the values: article PMC8512764, “New 4-Aminoproline-Based Small Molecule Cyclopeptidomimetics as Potential Modulators of α4β1 Integrin” (Molecules, 2021).
